Source: US7074768B2, “Modified protein kinase A-specific oligonucleotides and methods of their use” (Idera Pharmaceuticals, Inc., priority 1995, dated 2006)

Tested on: ZR75-1 human breast cancer cells
Experiment: Soft agar growth of ZR75-1 cells
Format: cell-based
Conditions: for inhibition of cell growth: every 48 hours for three times (Examples 24, 25)
Method: (§1) Cells (10^4 cells/well) were seeded in 0.5 ml of 0.3% Difco Noble agar (Difco, Detroit, Mich.) supplemented with complete culture medium. This suspension was layered over 0.5 ml of 0.8% agar-medium base layer in 24 multiwell cluster dishes (Becton Dickinson) and treated with various concentrations of docetaxel (day 0). […] Twelve days after the last treatment, cells were stained with nitroblue tetrazolium (Sigma) and colonies larger than 0.05 mm were counted.
as §1
Soft agar growth. Cells (10^4 cells/well) were seeded in 0.5 ml of 0.3% Difco Noble agar (Difco, Detroit, Mich.) supplemented with complete culture medium. This suspension was layered over 0.5 ml of 0.8% agar-medium base layer in 24 multiwell cluster dishes (Becton Dickinson) and treated with various concentrations of docetaxel (day 0). The HYB 165 was added after 12 hrs (day 1) and on day 3. Twelve days after the last treatment, cells were stained with nitroblue tetrazolium (Sigma) and colonies larger than 0.05 mm were counted.
Soft agar growth. Cells (10^4 cells/well) were seeded in 0.5 ml of 0.3% Difco Noble agar (Difco, Detroit, Mich.) supplemented with complete culture medium. This suspension was layered over 0.5 ml of 0.8% agar-medium base layer in 24 multiwell cluster dishes (Becton Dickinson) and treated with various concentrations of docetaxel (day 0). The HYB 508 was added after 12 hrs and on day 2, 3 and 4. After 12 days the cells were stained with nitroblue tetrazolium (Sigma) and colonies larger than 0.05 mm were counted.
Soft agar growth. Cells (10^4 cells/well) were seeded in 0.5 ml of 0.3% Difco Noble agar (Difco, Detroit, Mich.) supplemented with complete culture medium. […] After 12 days the cells were stained with nitroblue tetrazolium (Sigma) and colonies larger than 0.05 mm were counted.
Soft agar growth. Cells (10^4 cells/well) were seeded in 0.5 ml of 0.3% Difco Noble agar (Difco, Detroit, Mich.) supplemented with complete culture medium. This suspension was layered over 0.5 ml of 0.8% agar-medium base layer in 24 multiwell cluster dishes (Becton Dickinson) and treated with various concentrations of HYB 165 or HYB295 every 48 hours for three times. After 12 days the cells were stained with nitroblue tetrazolium (Sigma, St. Louis, Mo.) and colonies larger than 0.05 mm were counted.
Soft agar growth. Cells (10^4 cells/well) were seeded in 0.5 ml of 0.3% Difco Noble agar (Difco, Detroit, Mich.) supplemented with complete culture medium. This suspension was layered over 0.5 ml of 0.8% agar-medium base layer in 24 multiwell cluster dishes (Becton Dickinson) and treated with various concentrations of HYB 165 or HYB508 every 48 hours for three times. After 12 days the cells were stained with nitroblue tetrazolium (Sigma, St. Louis, Mo.) and colonies larger than 0.05 mm were counted.

HYB 165: Hybrid 18-mer mixed backbone antisense to PKA RIα, GCGUGCCTCCTCACUGGC (SEQ ID NO:4), 2-O-methyl ribonucleotides at 5′ and 3′ ends (sugars by position and backbone not given here; 2'-O-methyl ribonucleotides at both ends, mixed backbone)
inhibition of cell growth (0.1 μM): approximately 5% | inhibition of cell growth (1 μM): about 34% | inhibition of cell growth (2.5 μM): over 85% | growth inhibition (HYB 165 0.1 μM + C225 0.25 μg/ml (days 1, 3) after docetaxel 0.01 nM (day 0)): 93% | growth inhibition (HYB 165 0.1 μM + MAb C225 0.25 μg/ml): 37% | growth inhibition (HYB 165 0.1 μM + MAb C225 0.5 μg/ml): 65% | growth inhibition (HYB 165 0.1 μM + MAb C225 1 μg/ml): 85% | growth inhibition (HYB 165 0.1 μM + MAb C225 2.5 μg/ml): 90% | growth inhibition (HYB 165 0.1 μM after docetaxel 0.01 nM): 40% | growth inhibition (HYB 165 0.1 μM after docetaxel 0.03 nM): 70% | growth inhibition (HYB 165 0.1 μM after docetaxel 0.1 nM): 86% | growth inhibition (HYB 165 0.1 μM after docetaxel 0.3 nM): 97% | growth inhibition (HYB 165 0.1 μM alone (Example 13)): about 8% | growth inhibition (HYB 165 0.1 μM alone (Example 21)): about 5% | growth inhibition (HYB 165 0.1 μM alone (Example 23)): about 2% | growth inhibition (HYB 165 0.5 μM + MAb C225 0.25 μg/ml): 57% | growth inhibition (HYB 165 0.5 μM + MAb C225 0.5 μg/ml): 70% | growth inhibition (HYB 165 0.5 μM + MAb C225 1 μg/ml): 90% | growth inhibition (HYB 165 0.5 μM + MAb C225 2.5 μg/ml): 98% | growth inhibition (HYB 165 0.5 μM after docetaxel 0.01 nM): 65% | growth inhibition (HYB 165 0.5 μM after docetaxel 0.03 nM): 66% | growth inhibition (HYB 165 0.5 μM after docetaxel 0.3 nM): 99% | growth inhibition (HYB 165 0.5 μM after docetaxel 0.1 1 nM): 86% | growth inhibition (HYB 165 0.5 μM alone (Example 21)): about 15% | growth inhibition (HYB 165 0.5 μM alone (Example 23)): about 10% | cooperative effect of the combination (sequential combination with different doses of docetaxel): cooperatively inhibits the growth of ZR75-1 cells | cooperative effect of the combination (with MAb C225 0.25 μg/ml and docetaxel 0.01 nM): cooperatively inhibit the growth of ZR75-1 cells | cooperative effect of the combination (with different doses of MAb C225): cooperatively inhibit the growth of ZR-75-1 cells
